Results on one cell line are retold here after the supplement of paper PMC10307832.

What all share (test): relative viability (nuclei count vs DMSO), 5 days (fraction); higher = more cells survive
Compound in assay [1]: CC(=O)Nc1cccc(-n2c(=O)n(C3CC3)c(=O)c3c(Nc4ccc(I)cc4F)n(C)c(=O)c(C)c32)c1 [Trametinib] + CS(=O)(=O)CCNCc1ccc(-c2ccc3ncnc(Nc4ccc(OCc5cccc(F)c5)c(Cl)c4)c3c2)o1 [Lapatinib] (partner 2 µM)
The procedure, abridged: (§1)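 After 5 days of treatment, lung cancer cells in 1536-well plates were fixed and stained in a single step (final 0.05% Triton X-100, 1% formaldehyde, 1 ug/ml Hoechst) and their nuclei counted on 4× images. Treatment had been applied by pin tool the day after seeding as one drug alone or as a fixed anchor-drug dose with five library-drug doses (not always all listed) in √10 steps. Relative viability is the nuclei count of treated wells divided by that of vehicle wells, and values are medians of duplicate plates.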

Compound in assay [2]: CC(=O)Nc1cccc(-n2c(=O)n(C3CC3)c(=O)c3c(Nc4ccc(I)cc4F)n(C)c(=O)c(C)c32)c1 [Trametinib] + Cc1nc(Nc2ncc(C(=O)Nc3c(C)cccc3Cl)s2)cc(N2CCN(CCO)CC2)n1 [Dasatinib] (partner 0.075 µM)
The procedure, abridged:
as §1

Compound in assay [3]: CN1C=C(C2=CC=CC=C21)/C=C\3/C4=C(C=CC=N4)NC3=O + CC1(C)CCC(c2ccc(Cl)cc2)=C(CN2CCN(c3ccc(C(=O)NS(=O)(=O)c4ccc(N[C@H](CCN5CCOCC5)CSc5ccccc5)c(S(=O)(=O)C(F)(F)F)c4)cc3)CC2)C1 [Navitoclax] (partner 0.5 µM)
The procedure, abridged: as §1

Compound in assay [4]: CN1C=C(C2=CC=CC=C21)/C=C\3/C4=C(C=CC=N4)NC3=O + C[C@]1(O)C[C@@H](c2nc(-c3ccc4ccc(-c5ccccc5)nc4c3)c3c(N)nccn32)C1 [Linsitinib] (partner 1 µM)
The procedure, abridged:
as §1

As for UMC-11, the relative viability worked out at 0.951 in assay [1] (first compound 0.0025 µM); 0.973 in assay [1] (first compound 0.007906 µM); 0.348 in assay [1] (first compound 0.025 µM); 0.963 in assay [1] (first compound 0.07906 µM); 0.758 in assay [1] (first compound 0.25 µM); 0.446 in assay [2] (first compound 0.0025 µM). The relative viability in assay [2] (first compound 0.007906 µM) worked out at 0.509; in assay [2] (first compound 0.025 µM), 0.385; in assay [2] (first compound 0.07906 µM), 0.491; in assay [2] (first compound 0.25 µM), 0.49; in assay [3] (first compound 0.02 µM), 0.24; in assay [3] (first compound 0.06325 µM), 0.318. Besides, the relative viability in assay [3] (first compound 0.2 µM) is 0.288; in assay [3] (first compound 0.6325 µM), 0.362; in assay [3] (first compound 2 µM), 0.391; in assay [4] (first compound 0.02 µM), 0.68; in assay [4] (first compound 0.06325 µM) it was 1; in assay [4] (first compound 0.2 µM), 1.07. Moreover, the relative viability was 1.1 in assay [4] (first compound 0.6325 µM) and 1.18 in assay [4] (first compound 2 µM).
